According to US10258642B2, “Dextran sulfate for use in mobilization of cells” (TX MEDIC AB, priority 2013, dated 2019):
Values joined by “and” are separate entries in the source; they are usually repeats but may differ in a detail not shown here. Equal entries are not always repeated. Marks after values point to notes of the source that are not given here.

How the values were obtained:
[1] = tested on: peripheral blood cells; assay: s.c. dose finding study, hematological analysis of peripheral blood; conditions: LMW-DS (pKC) 500 mg/kg s.c., 3 hours, mean ± SEM
[2] = tested on: hematopoietic colony-forming cells (CFC); assay: i.v. dose finding study, colony-forming cell assay; type: in vivo, mice
Protocol: Blood (100-200 μL) was transferred to polypropylene tubes containing heparin (final concentration 17.5 IE/mL). Erythrocytes were depleted using ammonium chloride solution (StemCell Technologies, Vancouver, BC, Canada). Remaining cells were resuspended in Iscove's modified Dulbecco's Medium with 2% fetal bovine serum (StemCell Technologies) and mixed with 2 mL of methylcellulose media supplemented with a cocktail of recombinant cytokines (MethoCult 3434; StemCell Technologies) and penicillin-streptomycin according to manufacturer's instructions. Cultures of 1.1 mL containing HPCs were plated onto 35 mm dishes (Sarstedt, Landskrona, Sweden) and placed in a humidified chamber with 5% CO2 at 37° C. Total number of colonies was counted on day 12 of culture.

[3] = tested on: peripheral blood cells; assay: effect of administration route, hematological analysis; type: in vivo, mice; conditions: 30 minutes after administration
Protocol: (§1) Peripheral blood was sampled by terminal heart puncture under isoflurane-anesthesia using EDTA-flushed syringes and transferred to polypropylene tubes containing 1.6 mg EDTA (Sarstedt, Landskrona, Sweden).
Mobilization was performed on DBA/2N mice (9-10 months, Charles River) using 100 mg/kg dextran sulfate (Meito, i.v. and s.c.).
The effect on peripheral blood cells after administration of 100 mg/kg dextran sulfate i.v. and s.c. was compared (n=5). Cells were harvested 30 minutes after administration for both administration routes.

[4] = tested on: hematopoietic colony-forming cells (CFC); assay: time-effect relationship, colony-forming cell assay; type: in vivo; conditions: mice
Description: Peripheral blood was sampled by terminal heart puncture under isoflurane-anesthesia using EDTA-flushed (0.2 M EDTA prepared from a stock solution of 0.5 M EDTA (prepared by Rudbeck laboratory) diluted 1:2.5 in 0.9% NaCl) syringes.

[5] = tested on: HGF; assay: time-effect relationship, HGF-ELISA; type: in vivo, mice; conditions: for HGF highest level: 15 minutes after administration, mice; for HGF: i.v., plasma, HGF measured in another experiment
Protocol: Plasma was prepared by centrifuging EDTA blood for 5 minutes at 3000 g, and frozen at […] until analysis.

[6] = tested on: peripheral blood cells; assay: combination with G-CSF, hematological analysis; type: in vivo, mice; conditions: single administration, mice
Protocol: G-CSF (NEUPOGEN®, Amgen, Holland) was supplied as sterile isotonic aqueous solution at 0.3 mg/mL and was diluted in normal saline to a concentration of 50 μg/mL. G-CSF was administered at a dose of 2.5 μg as a single subcutaneous injection, morning and evening Day -2 and Day -1. Dextran sulfate of different average molecular weights were used:
Standard treatment of patients prior to apheresis is based on daily injections of G-CSF for up to one week. Clinically dextran sulfate could be used in combination with G-CSF. In a study in mice 2.5 μg/animal of G-CSF was administered twice daily (8 hrs apart) for 2 days (Broxmeyer 1999).

[7] = tested on: lymphocytes; assay: cell (lymphocyte) mobilization in humans after 10 min i.v. infusion; type: in vivo
Protocol: FIG. 13 illustrates mobilization of lymphocytes in peripheral blood in humans receiving a 10 min i.v. infusion of 15 mg/kg LMW-DS (top panel), 18 mg/kg LMW-DS (middle panel) or 24 mg/kg LMW-DS (lower panel) at time 0. The black line represents average lymphocyte levels and gray lines represent lymphocyte levels in individual humans.
Thus, the peak in cell mobilization starts about 1 hour after dextran sulfate administration, which is shown in […] exemplified by mobilization of lymphocytes following administration of different doses of dextran sulfate to human subjects at time 0 hours. Thus, the peak effect in cell mobilization in humans typically occurs within the first three hours following dextran sulfate administration.

[8] = tested on: peripheral blood cells; conditions: single dose; AMD3100 s.c., dextran sulfate i.v.
[9] = tested on: SDF-1; conditions: single injection, monkeys (Sweeney 2002); cited from earlier work
[10] = tested on: HGF; assay: s.c. dose finding study, HGF-ELISA; conditions: 50, 150 and 500 mg/kg s.c.
[11] = tested on: peripheral blood cells; assay: time-effect relationship, hematological analysis; conditions: 100 mg/kg i.v.; for Lymph / PLT / WBC: mean±SEM
Protocol: as §1

For dextran sulfate [LMW-DS], the MCV [1] was 42.4 ± 0.3 fL, the MPV [1] was 7.9 ± 0.1 and the Monocytes [1] was 0.5 ± 0.1*/† 10^9 cells/L. The Neutrophils [1] was 2.7 ± 0.3**/† 10^9 cells/L, the Platelets [1] was 893.5 ± 61.0†† 10^9 cells/L and the Reticulocytes [1] was 224.5 ± 35.2 10^9 cells/L. The “mobilization effect on CFC” value ([2]; lowest dose given, 25 mg/kg i.v., p<0.001) was “significant evident already at the lowest dose given”, the “increase of CFC over control” value ([2]; single dose, AMD3100 s.c., dextran sulfate i.v.) was 6-12 times and the “BFU-E compared with AMD3100” value ([2]; single i.v. injection) was “seemed to increase BFU-E to a greater extent than AMD3100”. The Lymphocytes ([3]; 100 mg/kg (Meito) i.v.) was 12.6 ± 1.7 *10^9/L, the WBC ([3]; 100 mg/kg (Meito) i.v.) was 16.2 ± 1.8 *10^9/L and the Lymphocytes ([3]; 100 mg/kg (Meito) s.c.) was 9.9 ± 1.2 *10^9/L. For the same substance, the “circulating WBC, lymphocytes, CFC or CFC subtypes, i.v. versus s.c.” value ([3]; 100 mg/kg) was “no significant differences”, the “time at which the number of CFCs peaks (peak starts)” value ([4]; 100 mg/kg i.v.) was 7.5 min and the “time of BFU-E peak” value ([4]; 100 mg/kg i.v.) was 7.5 min. The “time of CFU-GM/CFU-GEMM peak” value ([4]; 100 mg/kg i.v.) was 15 to 30 min, the “persistence of the CFC peak” value [4] was “at least 1 hour” and the “time of peak in mobilized cells (CFCs) after dextran sulfate administration” value [4] was 7.5 to 30 min. For the same substance, the HGF highest level ([5]; listed as Dextran sulfate) was 16000 pg/mL, the HGF highest level ([5]; listed as dextran sulfate) was 15960 pg/mL and 16000 pg/mL and the “increase of HGF compared to baseline levels” value ([5]; after 15 minutes) was greater than 100 fold. For the same substance, the “HGF increase relative to plerixafor (AMD3100)” value ([5]; dextran sulfate 15 minutes versus AMD3100 after 1 hour) was 25 fold, the HGF ([5]; 15 min) was 15,960 ± 1,450 pg/mL and the HGF ([5]; 30 min) was 13,800 ± 1,100 pg/mL. The HGF ([5]; 1 hr) was 7,740 ± 510 pg/mL, the HGF ([5]; 3 hr) was 710 ± 230 pg/mL and the “release of lymphocytes in single therapy compared to single administration of G-CSF or plerixafor” value [6] was “increased lymphocytes”. The “release of lymphocytes in single therapy compared to single administration of G-CSF or plerixafor” value ([6]; listed as dextran sulfate) was “at least doubles”, the “time of peak in mobilized cells after dextran sulfate administration” value ([7]; humans) was 30 to 120 min and the “time at which cell mobilization is back to normal levels” value ([7]; preliminary human data) was “about 24 hours”. For the same substance, the “time at which cell mobilization starts to decline” value ([7]; preliminary human data) was “about 6 hours”, the “time of peak of cell mobilization after administration” value ([7]; preliminary human data, lymphocytes) was “about 1 hour” and the “general increase of WBC over control” value [8] was 4-5 times. For the same substance, the “time of maximum levels of peripheral SDF-1” value [9] was 6 h, the “time of return of peripheral SDF-1 to baseline” value [9] was 24 h and the “levels of circulating HGF” value [10] was “significantly (p<0.001) increased levels”. The “number of platelets (PLT)” value [11] was “did not affect”, the Lymph ([11]; 7.5 min) was 4.6 ± 0.5*** *10^9/L and the PLT ([11]; 7.5 min) was 1,034 ± 31 *10^9/L. For the same substance, the WBC ([11]; 7.5 min) was 5.6 ± 0.5* *10^9/L, the Lymph ([11]; 15 min) was 8.9 ± 0.7*** *10^9/L and the PLT ([11]; 15 min) was 1,122 ± 58 *10^9/L. For the same substance, the WBC ([11]; 15 min) was 10.2 ± 0.7*** *10^9/L, the Lymph ([11]; 30 min) was 12.3 ± 1.1*** *10^9/L and the PLT ([11]; 30 min) was 978 ± 64 *10^9/L. For the same substance, the WBC ([11]; 30 min) was 14.6 ± 1.3*** *10^9/L, the Lymph ([11]; 1 hr) was 8.8 ± 0.5*** *10^9/L and the PLT ([11]; 1 hr) was 965 ± 23 *10^9/L. The WBC ([11]; 1 hr) was 11.2 ± 0.6*** *10^9/L, the Lymph ([11]; 3 hr) was 5.2 ± 0.8** *10^9/L and the PLT ([11]; 3 hr) was 936 ± 26 *10^9/L. The WBC ([11]; 3 hr) was 6.8 ± 1.0* *10^9/L and the “time of highest numbers of WBC and lymphocytes” value ([11]; mice) was “around 30 minutes”.
